Data from patent publication US20250002529A1, “NOVEL […] COMPOUNDS, PREPARATION METHODS, COMPOSITIONS AND APPLICATIONS” (Guangzhou Anobri Pharmaceutical Co. Ltd., priority 2021, published 2025).
Where two headings read alike, the source gives them in different places.

Tests used:
SARS-CoV-2 virus = test: In vitro anti-SARS-CoV-2 virus assay (Vero E6 cells, viral RNA by PCR); type: cell-based
[1] = type: in vivo, Male Wistar-Hannover rats
[2] = Vero E6 cells, compound final concentration 100 nM, PCR of supernatant viral RNA after 2-3 days

## [2H]C1([2H])C[C@@H](C[C@@H](C#N)NC(=O)[C@@H]2[C@@H]3[C@H](CN2C(=O)[C@@H](NC(=O)C(F)(F)F)C(C)(C)C)C3(C)C)C(=O)N1 [Compound 1]
SARS-CoV-2 virus; [2]
  Inhibition rate (virus replication): 71.5%
[1]; rats, dose 10 mg/kg, plasma
  AUC0~∞: 1974 ng·h/mL
  Cmax: 1393 ng/mL
  T1/2: 3.5 h
  Tmax: 2 h

## [2H][C@@](C#N)(C[C@@H]1CCNC1=O)NC(=O)[C@@H]1[C@@H]2[C@H](CN1C(=O)[C@@H](NC(=O)C(F)(F)F)C(C)(C)C)C2(C)C [Compound 2]
SARS-CoV-2 virus; [2]
  Inhibition rate (virus replication): 73.5%
[1]; rats, dose 10 mg/kg, plasma
  AUC0~∞: 2325 ng·h/mL
  Cmax: 1480 ng/mL
  T1/2: 4.2 h
  Tmax: 2 h

## [2H][C@](NC(=O)C(F)(F)F)(C(=O)N1C[C@H]2[C@@H]([C@H]1C(=O)N[C@H](C#N)C[C@@H]1CCNC1=O)C2(C)C)C(C)(C)C [Compound 16]
SARS-CoV-2 virus; [2]
  Inhibition rate (virus replication): 72.6%
[1]; rat, in vivo, 10 mg/kg
  Cmax: 1452 ng/mL
[1]; rats, dose 10 mg/kg, plasma
  AUC0~∞: 2294 ng·h/mL
  T1/2: 4 h
  Tmax: 2 h

## [2H]C([2H])([2H])C(C(NC(=O)C(F)(F)F)C(=O)N1C[C@H]2[C@@H]([C@H]1C(=O)N[C@H](C#N)C[C@@H]1CCNC1=O)C2(C)C)(C([2H])([2H])[2H])C([2H])([2H])[2H] (stereo partly shown) [Compound 32]
SARS-CoV-2 virus; [2]
  Inhibition rate (virus replication): 70.4%
[1]; rats, dose 10 mg/kg, plasma
  AUC0~∞: 2011 ng·h/mL
  Cmax: 1429 ng/mL
  T1/2: 3.5 h
  Tmax: 2 h

## O=C(OC[C@H]1O[C@@H](OC(=O)c2cc(O)c(O)c(OC(=O)c3cc(O)c(O)c(O)c3)c2)[C@H](OC(=O)c2cc(O)c(O)c(OC(=O)c3cc(O)c(O)c(O)c3)c2)[C@@H](OC(=O)c2cc(O)c(O)c(OC(=O)c3cc(O)c(O)c(O)c3)c2)[C@@H]1OC(=O)c1cc(O)c(O)c(OC(=O)c2cc(O)c(O)c(O)c2)c1)c1cc(O)c(O)c(OC(=O)c2cc(O)c(O)c(O)c2)c1 [Control, tannic acid, reference compound]
SARS-CoV-2 virus; Severe acute respiratory syndrome coronavirus 2, Vero C1008, read-out: Inhibition rate (virus replication)
  inhibition at 0.1 µM: 54.1%

## PF-07321332 [reference compound]
SARS-CoV-2 virus; 0.1 µM
  Inhibition rate (virus replication): 72.9%
